Experimental data published in publication PMC7505981, “Preparation of a whole cell catalyst overexpressing acetohydroxyacid synthase of Thermotoga maritima and its application in the syntheses of α-hydroxyketones” (Scientific Reports, 2020).

Target: T1, TmcAHAS (large catalytic subunit of acetohydroxyacid synthase of Thermotoga maritima) (Thermotoga maritima, UniProt Q9WZ18)
T1 construct: gene TM_0548; catalytic subunit alone, without regulatory subunit; gene from genomic DNA in pET28a (NdeI/BamHI), N-terminal His6 tag, E. coli Rosetta(DE3), Ni-NTA purified, about 68 kDa on SDS-PAGE; forward primer after NdeI site encodes MLLDEI
Experiment: photometric creatine/alpha-naphthol assay of acetoin at […] nm, Michaelis-Menten fit
Format: biochemical
Conditions: 50 mM phosphate pH 8.0, 80 °C, 10 min, 10 μM FAD, 1 mM ThDP, 10 mM Mg2+; catalytic subunit alone; read-out: Km for pyruvate

T1 sequence (Q9WZ18 entry or part of it): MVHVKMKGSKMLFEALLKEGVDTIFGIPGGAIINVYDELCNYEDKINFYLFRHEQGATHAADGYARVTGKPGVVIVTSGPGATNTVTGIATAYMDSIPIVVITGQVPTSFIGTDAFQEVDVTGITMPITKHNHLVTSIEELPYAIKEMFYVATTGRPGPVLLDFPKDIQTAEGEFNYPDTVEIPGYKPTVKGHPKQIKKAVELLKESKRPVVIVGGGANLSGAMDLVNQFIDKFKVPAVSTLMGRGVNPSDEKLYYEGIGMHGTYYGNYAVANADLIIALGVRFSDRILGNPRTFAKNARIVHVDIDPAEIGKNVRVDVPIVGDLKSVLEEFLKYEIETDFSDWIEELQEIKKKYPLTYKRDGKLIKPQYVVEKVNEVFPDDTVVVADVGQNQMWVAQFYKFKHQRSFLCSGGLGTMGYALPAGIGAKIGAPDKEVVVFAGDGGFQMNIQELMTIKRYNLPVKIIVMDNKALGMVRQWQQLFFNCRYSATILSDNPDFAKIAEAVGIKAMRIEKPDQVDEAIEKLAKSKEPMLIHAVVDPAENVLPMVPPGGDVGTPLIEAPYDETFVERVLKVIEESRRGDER

With `CC(=O)C(=O)O` [pyruvate] the Km was 19.1 ± 1.6 mM.
